Laboratory results taken from PMC7221826, “5-Oxo-hexahydroquinoline Derivatives and Their Tetrahydroquinoline Counterparts as Multidrug Resistance Reversal Agents” (Molecules, 2020).
Entries after “also recorded” stand apart in the source; their conditions may differ. Where two headings read alike, the source gives them in different places.

Legend:
[1] = tested on: A-549; test: MTT cell viability assay, A-549; format: cell-based, human; conditions: Homo sapiens, A549, 72 h, read-out: IC50 (µM) in Cultured Cells A-549
From the text: (§1) Cell lines used for cytotoxicity assays included MCF-7 (human breast adenocarcinoma), A549 (human lung adenocarcinoma), K562 (human chronic myelogenous leukemia) and HEK-293 (human embryonic kidney) cells and were obtained from the Iranian Biological Resource Center, Tehran, Iran. MES-SA-DX5 multidrug resistant human uterine sarcoma, over-expressing P-gp and their parental non-resistant MES-SA cell lines were purchased from Sigma-Aldrich (St. Louis, MO, USA). All cells, except for HEK-293, were cultured in RPMI 1640 supplemented with 10% FBS and 100 units/mL penicillin-streptomycin at 37 °C in humidified air containing 5% CO2. HEK-293 cells were maintained in DMEM-F12 medium containing L-glutamine 2 mM supplemented with FBS and penicillin-streptomycin. MES-SA-DX5 cells were maintained in media containing 100 nM doxorubicin in order to ensure that only drug-resistant cells continue to grow.
(§2) Cytotoxicity of the test compounds were evaluated by MTT assay. In this method, reduction of MTT, a yellow tetrazolium salt to the purple formazan, by cellular dehydrogenase enzymes is determined as an index of cell viability. Cancer cells were seeded into 96-well plates (3–5 × 10^3 cells/well) and incubated for 24 h at 37 °C. Afterwards, four different concentrations of synthesized derivatives were added in triplicate and the cells were incubated at 37 °C for another 72 h, after which the media was replaced with MTT solution at a concentration of 0.5 mg/mL was added for MTT assay. After another 4h, formazan crystals were dissolved in 200 μL DMSO for 90 min and absorbance was measured at a wavelength of 570 nm with background correction at 650 nm using a microplate reader (model 680, Bio-Rad, Hercules, CA, USA) and IC50 for each compound was calculated with CurveExpert version 1.34 for Windows.

[2] = biological target: T1, P-gp (Homo sapiens, UniProt P08183); test: MDR reversal assay: flow cytometric detection of Rhodamine123 efflux/accumulation in MES-SA-DX5 cells; format: cell-based; conditions: compounds at 5, 10 and 25 µM, 5 µM Rh123
T1 construct: MES-SA-DX5 is a resistant cell line, which overexpresses P-gp as a result of constant exposure to doxorubicin; host or cells: MES-SA-DX5 human uterine sarcoma cells
Method: Rhodamine 123 (Rh123) is a well-known substrate of P-gp and it is readily pumped out of the cells by this ABC transporter. The amount of retained Rh123 in the cells indicates the efflux function of the target transporter. Flow cytometric analysis was used for assessment of intracellular Rh123 as previously described.
Briefly, a suspension of the multidrug resistant uterine sarcoma MES-SA-DX5 cells at a density of 5 × 10^5 cells/mL in growth medium was prepared. Four-hundred microliters (400 µL) of the synthesized compounds with final concentration of 5, 10, and 25 µM were added to 500 µL of the cell suspension. Verapamil was also tested as a positive control. After an incubation of 20 min, 50 µL of Rh123 at a final concentration of 5 µM was added and incubated for further 30 min at 37 °C. The cells were then centrifuged and washed twice with ice-cold PBS, and then resuspended in PBS and kept on ice. Rh123 accumulated in cells was then quantified by a FACSCalibur flow cytometer (Becton Dickinson, San Jose, CA, USA) with excitation and emission wavelengths of 488 and 530 nm, respectively. Geometric means of fluorescence intensity values were determined using Flowing Software (http://flowingsoftware.btk.fi/).
Accumulation of Rhodamine123 (Rh123), caused by inhibition of P-gp-mediated efflux, was determined by flow cytometry in the multidrug resistant uterine sarcoma MES-SA-DX5 cell line. Verapamil was used as a positive control. MES-SA-DX5 is a resistant cell line, which overexpresses P-gp as a result of constant exposure to doxorubicin. Alterations in the amount of the fluorescent Rh123 retained inside the MES-SA-DX5 cells can be plausibly related to the inhibition of the activity of P-gp efflux pump in the cells (Figure 1). The ratio of the geometric mean value of cells treated with synthesized compounds to the geometric mean value of the control untreated cells are show in Figure 2.
Figure 2 MDR reversal assessed by flow cytometric detection of Rhodamine123 efflux in MES-SA-DX5 cells. Cells were suspended in RPMI 1640 and treated with verapamil (Ver, positive control) or synthesized derivatives. After incubation for 20 min, 5 μM Rh123 was added, the cells were incubated for another […] at 37 °C and then centrifuged and washed twice with ice-cold PBS and resuspended in PBS. The fluorescence caused by the presence of Rh123 in cells was measured using a flow cytometer with excitation and emission wavelengths of 488 nm and 530 nm, respectively. The values represent the mean ± S.E.M. of 3–5 experiments. * The difference between treated and controlled cells are statistically significant (p ˂ 0.05).

[3] = tested on: K562; test: MTT cell viability assay, K562; format: cell-based, human; conditions: Homo sapiens, K562, 72 h, read-out: IC50 (µM) in Cultured Cells K562
From the text: as §1, §2

[4] = tested on: MCF-7; test: MTT cell viability assay, MCF-7; format: cell-based, human; conditions: Homo sapiens, MCF7, 72 h, read-out: IC50 (µM) in Cultured Cells MCF-7
From the text: as §1, §2

[5] = tested on: MES-SA-DX5 cells; test: Cell cycle analysis by propidium iodide (PI)-RNase flow cytometry; format: cell-based, human; parameters: Sub G1: unit not given here; conditions: 24 h
Method: The analysis of cells in different phases of cell cycle and sub-G1 was performed using propidium iodide (PI)-RNase assay by flow cytometry. MES-SA-DX5 cells were seeded in 12-well plates (1 × 10^6 cells/well) and treated with different concentrations of synthesized compounds for 24 h. The cells were then collected, washed with PBS, and fixed with 70% ethanol overnight at –20 °C. After at least 24 h, fixed cells were washed with PBS and subsequently stained with a DNA staining solution containing PI 20 μg/mL and RNase 200 μg/mL at room temperature for 30 min in the dark. Twenty thousand cells of each sample were analyzed using a BD FACSCalibur flow cytometer (BD Biosciences, USA) and the amount of the cells in sub-G1, G0/G1, S, and G2/M phases were estimated using CellQuest (Becton Dickinson, San Jose, CA, USA) software.
Therefore, it could be concluded that these compounds cause cytotoxicity in drug resistant MES-SA-DX5 cells by induction of apoptosis in these cells.
Figure 3 Effect of synthesized derivatives on cell cycle alterations in MES-SA-DX5 drug resistant cells. The cells in different phases of cell cycle were monitored using propidium iodide (PI)-RNase assay by flow cytometry. MES-SA-DX5 cells were seeded in 12-well plates (1 × 10^6 cells/well) and treated with different concentrations of synthesized compounds for 24 h. The cells were then collected, washed with PBS and fixed with 70% ethanol overnight at –20 °C. After at least 24 h, fixed cells were washed with PBS and subsequently stained with a DNA staining solution containing PI 20 μg/mL and RNase 200 μg/mL at room temperature for 30 min in the dark. Twenty thousand cells of each sample were analyzed using a FACS Calibur flow cytometer (BD Biosciences, USA). Representative histograms of cells treated with synthesized compounds are shown. An increase in sub-G1 phase cells could be observed after treatment with A1, A2, B1, and B2 compounds.

[6] = tested on: MES-SA; test: MTT cell viability assay, MES-SA; format: cell-based, human; conditions: MTT; for IC50: Homo sapiens, MES-SA, 72 h, parental non-resistant, read-out: IC50 (µM) in Cultured Cells MES-SA
From the text: as §1, §2

[7] = tested on: MES-SA-DX5; test: MTT cell viability assay, MES-SA-DX5; format: cell-based, human; conditions: Homo sapiens, MES-SA/Dx5, 72 h, multidrug resistant, P-gp overexpressing, read-out: IC50 (µM) in Cultured Cells MES-SA-DX5
From the text: as §1, §2

[8] = tested on: HEK-293; test: MTT cell viability assay, HEK-293; format: cell-based, human; conditions: non-cancerous, read-out: IC50 (µM) in Cultured Cells HEK-293
From the text: as §1, §2

T1 sequence (P08183 whole entry): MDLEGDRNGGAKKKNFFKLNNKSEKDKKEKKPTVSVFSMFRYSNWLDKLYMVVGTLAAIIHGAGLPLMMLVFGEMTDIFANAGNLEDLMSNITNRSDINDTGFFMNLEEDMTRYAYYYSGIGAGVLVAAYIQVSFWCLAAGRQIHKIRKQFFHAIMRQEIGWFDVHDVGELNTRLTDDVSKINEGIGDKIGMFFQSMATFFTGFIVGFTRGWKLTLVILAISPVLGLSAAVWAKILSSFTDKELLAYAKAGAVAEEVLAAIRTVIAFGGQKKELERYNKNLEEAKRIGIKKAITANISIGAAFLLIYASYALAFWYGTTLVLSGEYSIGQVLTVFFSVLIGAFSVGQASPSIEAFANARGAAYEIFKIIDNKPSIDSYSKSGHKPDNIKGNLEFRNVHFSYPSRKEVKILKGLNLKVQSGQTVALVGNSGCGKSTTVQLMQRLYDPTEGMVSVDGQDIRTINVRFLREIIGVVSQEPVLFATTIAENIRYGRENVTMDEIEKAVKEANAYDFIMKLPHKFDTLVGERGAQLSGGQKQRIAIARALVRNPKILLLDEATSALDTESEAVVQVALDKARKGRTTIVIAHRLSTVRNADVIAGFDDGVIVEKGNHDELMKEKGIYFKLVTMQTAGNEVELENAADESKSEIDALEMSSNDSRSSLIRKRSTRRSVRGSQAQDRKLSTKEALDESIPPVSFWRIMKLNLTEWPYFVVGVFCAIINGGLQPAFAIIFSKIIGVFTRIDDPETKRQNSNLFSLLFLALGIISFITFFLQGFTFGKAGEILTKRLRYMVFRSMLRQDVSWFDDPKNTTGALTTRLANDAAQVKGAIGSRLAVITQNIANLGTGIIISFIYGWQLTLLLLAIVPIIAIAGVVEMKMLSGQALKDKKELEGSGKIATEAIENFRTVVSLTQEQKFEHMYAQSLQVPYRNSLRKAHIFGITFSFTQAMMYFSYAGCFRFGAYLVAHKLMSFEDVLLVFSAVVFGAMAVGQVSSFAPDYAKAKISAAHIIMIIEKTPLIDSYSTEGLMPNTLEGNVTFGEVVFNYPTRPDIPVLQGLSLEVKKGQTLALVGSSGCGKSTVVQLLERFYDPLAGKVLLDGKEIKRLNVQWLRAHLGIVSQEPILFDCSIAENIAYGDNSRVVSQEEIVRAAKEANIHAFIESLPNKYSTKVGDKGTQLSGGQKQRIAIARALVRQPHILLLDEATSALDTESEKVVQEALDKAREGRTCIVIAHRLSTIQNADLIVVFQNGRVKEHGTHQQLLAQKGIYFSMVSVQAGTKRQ

Row | SMILES | IC50 [1] [µM] | IC50 [3] [µM] | IC50 [4] [µM] | melting point [°C] | P-gp inhibitory activity (Rh123 accumulation) [2] | G0/G1 ([5]; 10 µM) | G2/M ([5]; 10 µM) | S ([5]; 10 µM) | Sub G1 ([5]; 10 µM) | G0/G1 ([5]; 25 µM) | G2/M ([5]; 25 µM) | S ([5]; 25 µM) | Sub G1 ([5]; 25 µM) | S ([5]; 100 µM) | IC50 [6] [µM] | IC50 [7] [µM] | IC50 ([8]; Homo sapiens, HEK293, 72 h) [µM] | G0/G1 ([5]; 100 µM) | G2/M ([5]; 100 µM) | effect against parental non-resistant MES-SA cells [6] | further results
1 | CC1=C(C(=O)Nc2csc(C)n2)C(c2ccc(Cl)cc2Cl)C2=C(CCCC2=O)N1 (stereo not shown) [Compound A1, 4-(2,4-Dichlorophenyl)-2-methyl-N-(2-methylthiazol-4-yl)-5-oxo-1,4,5,6,7,8-hexahydroquinoline-3-carboxamide] | 48.8 ± 1.3 | 15 ± 0.5 | 72.5 ± 11.9 | 195 | significantly blocked P-gp efflux; also recorded: highest P-gp inhibitory activities | 52.32 ± 1.8 | 25.12 ± 1.7 | 21.85 ± 1.0 | 0.61 ± 0.2 | 53.30 ± 0.9 | 25.01 ± 0.7 | 20.96 ± 1.2 | 0.71 ± 0.2 | 21.12 ± 1.6 | 64.1 ± 19.4 | 40.1 ± 4.7 | 28.6 ± 4.3 |  |  |  | 
2 | CC1=C(C(=O)Nc2csc(C)n2)C(c2ccc(Br)cc2)C2=C(CCCC2=O)N1 (stereo not shown) [Compound A2, 4-(4-Bromophenyl)-2-methyl-N-(2-methylthiazol-4-yl)-5-oxo-1,4,5,6,7,8-hexahydroquinoline-3-carboxamide] | 87.1 ± 6.7 | 31 ± 2.7 | 56.7 ± 3.6 | 273 | significantly blocked P-gp efflux; also recorded: highest P-gp inhibitory activities | 56.45 ± 1.1 | 23.45 ± 0.2 | 18.90 ± 0.2 | 1.21 ± 0.7 | 59.47 ± 3.0 | 20.23 ± 0.7 | 18.53 ± 1.7 | 1.71 ± 1.1 | 19.27 ± 0.3 | > 100 | 31.5 ± 1.5 | > 50 | 50.57 ± 2.8 | 18.37 ± 2.6 | did not show any effect | IC50 ([8]; 72 h): 63.1 ± 7.4 µM
3 | CC1=C(C(=O)Nc2csc(C)n2)C(c2ccc(Cl)cc2)C2=C(CCCC2=O)N1 (stereo not shown) [Compound A5, 4-(4-Chlorophenyl)-2-methyl-N-(2-methylthiazol-4-yl)-5-oxo-1,4,5,6,7,8-hexahydroquinoline-3-carboxamide] | 87.4 ± 1.5 | 31.5 ± 3.3 | 72.9 ± 12.3 | 253 |  | 56.07 ± 0.3 | 24.20 ± 1.2 | 19.03 ± 0.9 | 0.65 ± 0.2 | 58.03 ± 0.7 | 22.33 ± 0.5 | 18.90 ± 0.9 | 0.70 ± 0.3 | 18.58 ± 0.6 | 69.5 ± 12.5 | 40.3 ± 3 | > 50 | 48.92 ± 1.4 | 29.32 ± 1.2 |  | IC50 ([8]; 72 h): 71.1 ± 10.1 µM

Continued, in another order:

Row | IC50 [1] [µM] | IC50 [3] [µM] | IC50 [4] [µM] | melting point [°C] | SMILES | P-gp inhibitory activity (Rh123 accumulation) [2] | G0/G1 ([5]; 10 µM) | G2/M ([5]; 10 µM) | S ([5]; 10 µM) | Sub G1 ([5]; 10 µM) | G0/G1 ([5]; 25 µM) | G2/M ([5]; 25 µM) | S ([5]; 25 µM) | Sub G1 ([5]; 25 µM) | S ([5]; 100 µM) | IC50 [6] [µM] | IC50 [7] [µM] | IC50 ([8]; Homo sapiens, HEK293, 72 h) [µM] | G0/G1 ([5]; 100 µM) | G2/M ([5]; 100 µM) | effect against parental non-resistant MES-SA cells [6] | further results
4 | 86.8 ± 5 | 10.1 ± 1.5 | 77.7 ± 8.7 | 261 | Cc1nc(NC(=O)c2c(C)nc3c(c2-c2ccc(Br)cc2)C(=O)CCC3)cs1 [Compound B2, 4-(4-Bromophenyl)-2-methyl-N-(2-methylthiazol-4-yl)-5-oxo-5,6,7,8-tetrahydroquinoline-3-carboxamide] | significantly blocked P-gp efflux; also recorded: highest P-gp inhibitory activities | 53.00 ± 3.6 | 24.13 ± 2.4 | 21.80 ± 1.5 | 0.96 ± 0.1 | 55.83 ± 2.6 | 22.23 ± 1.4 | 20.30 ± 1.7 | 1.57 ± 0.4 | 19.48 ± 1.8 | > 100 | 43.6 ± 2.8 | > 50 | 47.00 ± 0.6 | 29.27 ± 1.8 | did not show any effect | 
5 | 60 ± 3 | 6.7 ± 0.6 | 47.1 ± 2.1 | 248 | Cc1nc(NC(=O)c2c(C)nc3c(c2-c2ccc(Cl)cc2Cl)C(=O)CCC3)cs1 [Compound B1, 4-(2,4-Dichlorophenyl)-2-methyl-N-(2-methylthiazol-4-yl)-5-oxo-5,6,7,8-tetrahydroquinoline-3-carboxamide] | significantly blocked P-gp efflux | 49.10 ± 3.7 | 29.03 ± 2.1 | 21.27 ± 2.1 | 0.64 ± 0.1 | 51.13 ± 2.4 | 27.03 ± 0.6 | 20.90 ± 2.0 | 0.91 ± 0.0 | 25.17 ± 0.7 | 55.6 ± 2.4 | 39.8 ± 1.6 | 39.9 ± 5.4 |  |  |  | 
